Test results taken from patent publication US7803930B2, “Antisense modulation of apolipoprotein B-expression” (Isis Pharmaceuticals, Inc., priority 2002, dated 2010).
In the oligonucleotide strings, read from the 5' end, every base follows the letter of its sugar. An asterisk marks phosphorothioate; unmarked linkages are phosphodiester. Other units and linkages are bracketed, terminal groups are in braces. A string of capitals states the bases alone. e = 2'-O-(2-methoxyethyl) (MOE); [5mC] = 5-methylcytosine; d = 2'-deoxy (DNA)

System: mouse apolipoprotein B mRNA
Experiment: Inhibition of mouse apolipoprotein B mRNA levels in primary mouse hepatocytes, real-time PCR
Type: cell-based
Settings: Table 3, 150 nM, averages from two experiments
Description: Primary mouse hepatocytes were prepared from CD-1 mice purchased from Charles River Labs (Wilmington, Mass.) and were routinely cultured in Hepatoyte Attachment Media (Gibco) supplemented with 10% Fetal Bovine Serum (Gibco/Life Technologies, Gaithersburg, Md.), 250 nM dexamethasone (Sigma), and 10 nM bovine insulin (Sigma). Cells were seeded into 96-well plates (Falcon-Primaria #3872) at a density of 10000 cells/well for use in RT-PCR analysis.
When cells reached 80% confluency, they were treated with oligonucleotide. For cells grown in 96-well plates, wells were washed once with 200 μL OPTI-MEM™-1 reduced-serum medium (Gibco BRL) and then treated with 130 μL of OPTI-MEM™-1 containing 3.75 μg/mL LIPOFECTIN™ (Gibco BRL) and the desired concentration of oligonucleotide. After 4-7 hours of treatment, the medium was replaced with fresh medium. Cells were harvested 16-24 hours after oligonucleotide treatment.
Quantitation of apolipoprotein B mRNA levels was determined by real-time quantitative PCR using the ABI PRISM™ 7700 Sequence Detection System (PE-Applied Biosystems, Foster City, Calif.) according to manufacturer's instructions. This is a closed-tube, non-gel-based, fluorescence detection system which allows high-throughput quantitation of polymerase chain reaction (PCR) products in real-time. As opposed to standard PCR, in which amplification products are quantitated after the PCR is completed, products in real-time quantitative PCR are quantitated as they accumulate. This is accomplished by including in the PCR reaction an oligonucleotide probe that anneals specifically between the forward and reverse PCR primers, and contains two fluorescent dyes. A reporter dye (e.g., JOE, FAM, or VIC, obtained from either Operon Technologies Inc., Alameda, Calif. or PE-Applied Biosystems, Foster City, Calif.) is attached to the 5′ end of the probe and a quencher dye (e.g., TAMRA, obtained from either Operon Technologies Inc., Alameda, Calif. or PE-Applied Biosystems, Foster City, Calif.) is attached to the 3′ end of the probe. When the probe and dyes are intact, reporter dye emission is quenched by the proximity of the 3′ quencher dye. During amplification, annealing of the probe to the target sequence creates a substrate that can be cleaved by the 5′-exonuclease activity of Taq polymerase. […] With each cycle, additional reporter dye molecules are cleaved from their respective probes, and the fluorescence intensity is monitored at regular intervals by laser optics built into the ABI PRISM™ 7700 Sequence Detection System. In each assay, a series of parallel reactions containing serial dilutions of mRNA from untreated control samples generates a standard curve that is used to quantitate the percent inhibition after antisense oligonucleotide treatment of test samples.
Probes and primers to mouse apolipoprotein B were designed to hybridize to a mouse apolipoprotein B sequence, using published sequence information (GenBank accession number M35186, incorporated herein as SEQ ID NO: 10). For mouse apolipoprotein B the PCR primers were: forward primer: CGTGGGCTCCAGCATTCTA (SEQ ID NO: 11) reverse primer: […] (SEQ ID NO: 12) and the PCR probe was: FAM-[…]-TAMRA SEQ ID NO: 13) where FAM (PE-Applied Biosystems, Foster City, Calif.) is the fluorescent reporter dye) and TAMRA (PE-Applied Biosystems, Foster City, Calif.) is the quencher dye. For mouse GAPDH the PCR primers were: forward primer: […] (SEQ ID NO: 14) reverse primer: […] (SEQ ID NO:15) and the PCR probe was: 5′ JOE-[…]-TAMRA 3′ (SEQ ID NO: 16) where JOE (PE-Applied Biosystems, Foster City, Calif.) is the fluorescent reporter dye) and TAMRA (PE-Applied Biosystems, Foster City, Calif.) is the quencher dye.
In accordance with the present invention, a series of oligonucleotides was designed to target different regions of the mouse apolipoprotein B RNA, using published sequence (GenBank accession number M35186, incorporated herein as SEQ ID NO: 10). […]

Substance | % INHIB
147475 (eA*eT*eT*eG*eT*dA*dT*dG*dT*dG*dA*dG*dA*dG*dG*eT*eG*eA*eG*eG; antisense) [compound 147475] | 79%
147476 (eG*eA*eG*eG*eA*dG*dA*dT*dT*dG*dG*dA*dT*d[5mC]*dT*eT*eA*eA*eG*eG; antisense) [compound 147476] | 13%
147478 (eT*e[5mC]*e[5mC]*eA*eG*dG*dA*dA*dT*dT*dG*dA*dG*d[5mC]*dT*eT*eG*eT*eG*e[5mC]; antisense) [compound 147478] | 78%
147480 (eT*e[5mC]*eT*e[5mC]*eA*d[5mC]*d[5mC]*d[5mC]*dT*d[5mC]*dA*dT*dG*d[5mC]*dT*e[5mC]*e[5mC]*eA*eT*eT; antisense) [compound 147480] | 54%
147481 (eT*eG*eA*e[5mC]*eT*dG*dT*d[5mC]*dA*dA*dG*dG*dG*dT*dG*eA*eG*e[5mC]*eT*eG; antisense) [compound 147481] | 24%
147482 (eG*eT*e[5mC]*e[5mC]*eA*dG*d[5mC]*d[5mC]*dT*dA*dG*dG*dA*dA*d[5mC]*eA*e[5mC]*eT*e[5mC]*eA; antisense) [compound 147482] | 59%
147484 (eT*eT*e[5mC]*eA*eT*d[5mC]*d[5mC]*dG*dA*dG*dA*dA*dG*dT*dT*eG*eG*eG*eA*e[5mC]; antisense) [compound 147484] | 49%
147485 (eA*eT*eT*eT*eG*dG*dG*dA*d[5mC]*dG*dA*dA*dT*dG*dT*eA*eT*eG*e[5mC]*e[5mC]; antisense) [compound 147485] | 64%
147487 (eT*eT*e[5mC]*e[5mC]*e[5mC]*dA*dG*dT*d[5mC]*dA*dG*d[5mC]*dT*dT*dT*eA*eG*eT*eG*eG; antisense) [compound 147487] | 73%
147488 (eA*eG*e[5mC]*eT*eT*dG*d[5mC]*dT*dT*dG*dT*dT*dG*dG*dG*e[5mC]*eA*e[5mC]*eG*eG; antisense) [compound 147488] | 72%
147489 (e[5mC]*e[5mC]*eT*eA*eT*dA*d[5mC]*dT*dG*dG*d[5mC]*dT*dT*d[5mC]*dT*eA*eT*eG*eT*eT; antisense) [compound 147489] | 5%
147491 (eG*eA*eG*eA*eA*dA*dT*d[5mC]*d[5mC]*dT*dT*d[5mC]*dA*dG*dT*eA*eA*eG*eG*eG; antisense) [compound 147491] | 71%
147492 (e[5mC]*eA*eA*eT*eG*dG*dA*dA*dT*dG*d[5mC]*dT*dT*dG*dT*e[5mC]*eA*e[5mC]*eT*eG; antisense) [compound 147492] | 68%

System: rabbit apolipoprotein B mRNA
Experiment: Inhibition of rabbit apolipoprotein B mRNA levels in primary rabbit hepatocytes, real-time PCR
Type: cell-based
Set-up: % INHIB of rabbit apolipoprotein B mRNA levels: concentration or dose not given beside the values
Settings: not given
Source text: Primary rabbit hepatocytes were purchased from Invitro Technologies (Gaithersburg, Md.) and maintained in Dulbecco's modified Eagle's medium (Gibco). When purchased, the cells had been seeded into 96-well plates for use in RT-PCR analysis and were confluent.
In accordance with the present invention, a series of oligonucleotides was designed to target different regions of rabbit apolipoprotein B, using published sequences (GenBank accession number X07480.1, incorporated herein as SEQ ID NO: 808, GenBank accession number M17780.1, incorporated herein as SEQ ID NO: 809, and a sequence was derived using previously described primers (Tanaka, Journ. Biol. Chem., 1993,268, 12713-12718) representing an mRNA of the rabbit apolipoprotein B, incorporated herein as SEQ ID NO: 810). “Target site” indicates the first (5′-most) nucleotide number on the particular target sequence to which the oligonucleotide binds. All compounds in Table 21 are chimeric oligonucleotides (“gapmers”) 20 nucleotides in length, composed of a central “gap” region consisting of ten 2′-deoxynucleotides, which is flanked on both sides (5′ and 3′ directions) by five-nucleotide “wings”. The wings are composed of 2′-methoxyethyl (2′-MOE)nucleotides. The internucleoside (backbone) linkages are phosphorothioate (P═S) throughout the oligonucleotide. All cytidine residues are 5-methylcytidines. The compounds were analyzed for their effect on rabbit apolipoprotein B mRNA levels in primary rabbit hepatocytes by quantitative real-time PCR as described in other examples herein. Primary rabbit hepatocytes were treated with 150 nM of the compounds in Table 21. For rabbit apolipoprotein B the PCR primers were: • forward primer: AAGCACCCCCAATGTCACC (SEQ ID NO: 811) • reverse primer: […] (SEQ ID NO: 812) and the PCR probe was: FAM-[…]-TAMRA (SEQ ID NO: 813) where FAM (PE-Applied Biosystems, Foster City, Calif.) is the fluorescent reporter dye) and TAMRA (PE-Applied Biosystems, Foster City, Calif.) is the quencher dye. Data are averages from two experiments. If present, “N.D.” indicates “no data”.
In accordance with the present invention, a subset of the antisense oligonuclotides in Example 42 was further investigated in dose-response studies. Treatment doses were 10, 50, 150 and 300 nM. ISIS 233160 (SEQ ID NO: 824), ISIS 233166 (SEQ ID NO: 830), ISIS 233172 (SEQ ID NO: 835), ISIS 233175 (SEQ ID NO: 838), and ISIS 233183 (SEQ ID NO: 846) were analyzed for their effect on rabbit apolipoprotein B mRNA levels in primary rabbit hepatocytes by quantitative real-time PCR as described in other examples herein.

Substance | % INHIB of rabbit apolipoprotein B mRNA levels
233179 (antisense eA*eT*eG*eT*eT*dG*d[5mC]*d[5mC]*d[5mC]*dA*dT*dG*dG*d[5mC]*dT*eG*eG*eA*eA*eT) [compound 233179] | 65%
233180 (antisense eA*eA*eG*eA*eT*dG*d[5mC]*dA*dG*dT*dA*d[5mC]*dT*dA*d[5mC]*eT*eT*e[5mC]*e[5mC]*eA) [compound 233180] | 13%
233181 (antisense eG*e[5mC]*eA*e[5mC]*e[5mC]*d[5mC]*dA*dG*dA*dA*dT*d[5mC]*dA*dT*dG*eG*e[5mC]*e[5mC]*eT*eG) [compound 233181] | 0%
233182 (antisense e[5mC]*eT*eT*eG*eA*dT*dA*d[5mC]*dT*dT*dG*dG*dT*dA*dT*e[5mC]*e[5mC]*eA*e[5mC]*eA) [compound 233182] | 59%
233183 (antisense e[5mC]*eA*eG*eT*eG*dT*dA*dA*dT*dG*dA*dT*d[5mC]*dG*dT*eT*eG*eA*eT*eT) [compound 233183] | 88%
233184 (antisense eT*eA*eA*eA*eG*dT*d[5mC]*d[5mC]*dA*dG*d[5mC]*dA*dT*dT*dG*eG*eT*eA*eT*eT) [compound 233184] | 69%
233185 (antisense e[5mC]*eA*eA*e[5mC]*eA*dA*dT*dG*dT*d[5mC]*dT*dG*dA*dT*dT*eG*eG*eT*eT*eA) [compound 233185] | 73%
233186 (antisense eG*eA*eA*eG*eA*dG*dG*dA*dA*dG*dA*dA*dA*dG*dG*eA*eT*eA*eT*eG) [compound 233186] | 60%
233187 (antisense eT*eG*eA*e[5mC]*eA*dG*dA*dT*dG*dA*dA*dG*dA*dG*dG*eA*eA*eG*eA*eA) [compound 233187] | 66%
233188 (antisense eT*eT*eG*eT*eA*d[5mC]*dT*dG*dT*dA*dG*dT*dG*d[5mC]*dA*eT*e[5mC]*eA*eA*eT) [compound 233188] | 74%
233189 (antisense eG*e[5mC]*e[5mC]*eT*e[5mC]*dA*dA*dT*d[5mC]*dT*dG*dT*dT*dG*dT*eT*eT*e[5mC]*eA*eG) [compound 233189] | 46%
233190 (antisense eA*e[5mC]*eT*eT*eG*dA*dG*d[5mC]*dG*dT*dG*d[5mC]*d[5mC]*d[5mC]*dT*e[5mC]*eT*eA*eA*eT) [compound 233190] | 69%
233191 (antisense eG*eA*eA*eA*eT*dG*dG*dA*dA*dT*dT*dG*dT*dA*dG*eT*eT*e[5mC]*eT*e[5mC]) [compound 233191] | 31%

Same assay, conditions: 10 nM, averages from two experiments

Substance | Percent Inhibition of rabbit apolipoprotein B mRNA levels
233183 (antisense e[5mC]*eA*eG*eT*eG*dT*dA*dA*dT*dG*dA*dT*d[5mC]*dG*dT*eT*eG*eA*eT*eT) [compound 233183] | 30%

Same assay, conditions: 50 nM, averages from two experiments

Substance | Percent Inhibition of rabbit apolipoprotein B mRNA levels
233183 (antisense e[5mC]*eA*eG*eT*eG*dT*dA*dA*dT*dG*dA*dT*d[5mC]*dG*dT*eT*eG*eA*eT*eT) [compound 233183] | 71%

Same assay, conditions: 150 nM, averages from two experiments

Substance | Percent Inhibition of rabbit apolipoprotein B mRNA levels
233183 (antisense e[5mC]*eA*eG*eT*eG*dT*dA*dA*dT*dG*dA*dT*d[5mC]*dG*dT*eT*eG*eA*eT*eT) [compound 233183] | 81%

Same assay, conditions: 300 nM, averages from two experiments

Substance | Percent Inhibition of rabbit apolipoprotein B mRNA levels
233183 (antisense e[5mC]*eA*eG*eT*eG*dT*dA*dA*dT*dG*dA*dT*d[5mC]*dG*dT*eT*eG*eA*eT*eT) [compound 233183] | 80%
